The values below come from PubChem BioAssay AID463203 (Broad Institute, 2010).

This assay deals with Glycogen synthase kinase-3 alpha (Homo sapiens) (UniProt P49840). The experiment in a line: concentration-response blocking of human GSK3A – biochemical, luminescence, cell-free homogeneous, retest, dose response (AID 463203). The conditions noted are these: GSK-3 alpha enzyme, ADP-Glo luminescence, 60 min.

The source made the active and inactive calls.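 Rule for the calls: active = more than half of replicate measurements showing over 20% loss of kinase signal relative to plate controls; inconclusive = some but at most half of replicates over 20% loss; inactive = no replicate over 20% signal loss.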

Glycogen synthase kinase-3 alpha (Homo sapiens), sequence (P49840 whole entry, looked up): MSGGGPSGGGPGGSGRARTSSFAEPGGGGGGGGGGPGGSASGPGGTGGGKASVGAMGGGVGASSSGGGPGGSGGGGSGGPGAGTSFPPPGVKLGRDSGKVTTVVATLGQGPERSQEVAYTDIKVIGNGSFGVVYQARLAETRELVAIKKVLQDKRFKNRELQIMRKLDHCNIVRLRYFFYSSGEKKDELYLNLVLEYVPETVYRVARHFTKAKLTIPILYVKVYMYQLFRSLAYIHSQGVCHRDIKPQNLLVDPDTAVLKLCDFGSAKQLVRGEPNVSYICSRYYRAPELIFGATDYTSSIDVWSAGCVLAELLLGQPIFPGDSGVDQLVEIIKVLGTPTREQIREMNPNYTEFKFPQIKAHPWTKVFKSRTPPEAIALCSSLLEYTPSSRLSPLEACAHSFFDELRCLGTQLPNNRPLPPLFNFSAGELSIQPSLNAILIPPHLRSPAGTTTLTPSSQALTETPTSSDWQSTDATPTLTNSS

On to `O=C(Nc1ccccc1C(=O)NC1CCCCC1)c1ccco1`, for which the AC50 is > 30 µM (inactive).
In the case of `Cc1cc(N2CCN(c3ccccc3)CC2)n2nnnc2n1` it was > 30 µM (inactive); in that of `O=c1[nH]c2c(s1)C(c1cccnc1)C1C3CCC(C3)C1S2` (configuration not stated), 8.66 µM; in that of `Cc1cc(NC(=O)CCSc2nc(-c3ccco3)cc(C(F)(F)F)n2)n(-c2ccccc2)n1`, > 30 µM (inactive).
Take `O=C(NCCN1CCN(Cc2ccccc2Cl)CC1)Nc1ccccc1`: the AC50 is > 30 µM (inactive).
On to `CCC(=NCCCO)c1c(O)n(-c2ccc(OC)cc2)c(=O)[nH]c1=O`, for which the AC50 is > 30 µM (inactive).
The same measure for `O=C(CSCCO)Nc1ccc([N+](=O)[O-])cc1`: > 30 µM (inactive).
`O=[N+]([O-])c1cc(S(=O)(=O)N2CCCCC2)ccc1NCCCN1CCOCC1`: the AC50 is > 30 µM (inactive).
As to `O=c1[nH]nnc2c1sc1nc(N3CCOCC3)c3c(c12)CCCC3`, the AC50 was 13.4 µM.
Turning to `Oc1ccc(-c2nc3ncccn3c2Nc2ccc3c(c2)OCO3)cc1`, the AC50 was 6.33 µM.
Take `Cc1nnc(SCC(=O)N(C(C)C)C(C)C)nc1C`: the AC50 was > 30 µM (inactive).
In the case of `O=C(Nc1nc2c(s1)CCCC2)c1ccc(Br)s1` it was > 30 µM (inactive).
`c1ccc2c(c1)Sc1ccccc1-n1cnnc1-2`: the AC50 was > 30 µM (inactive).
On to `COc1ccc(NC(=O)c2c(Nc3ccccc3)sc(C(=O)c3ccc(F)cc3)c2N)cc1`, for which the AC50 was > 30 µM (inactive).
The same measure for `COc1ccc(N=c2oc3c(OC)cccc3cc2C(=O)NCc2ccco2)c(OC)c1`: > 30 µM (inactive); for `CC(C(=O)Nc1cccc(Br)c1)c1ccc([N+](=O)[O-])cc1` (configuration not stated): > 30 µM (inactive); for `COc1cc(C(=O)Oc2cc(C)cc(C)c2)cc(OC)c1OC`: > 30 µM (inactive).
The same measure for `O=C(O)c1[nH]c2ccc([N+](=O)[O-])cc2c1-c1ccccc1`: 11 µM; for `COc1cc(/C=N/Nc2nc(=O)[nH]nc2C)cc([N+](=O)[O-])c1O`: 22.1 µM; for `O=C(CNC(=O)c1ccccc1)N/N=C/C=C/c1ccccc1`: > 30 µM (inactive).
On to `Cc1ccc(NC(=S)Nc2ccc3cn[nH]c3c2)c(C)c1`, for which the AC50 is > 30 µM (inactive).
Consider `CCCCNc1nc(N)nc(-c2cc(Cl)ccc2O)n1`, for which the AC50 was 3.04 µM.
In the case of `CCn1c2ccc(Cl)cc2c2nc3ccccc3nc21` it was > 30 µM (inactive).
The same measure for `CCn1ncc([N+](=O)[O-])c1C(=O)N1CCCC1`: > 30 µM (inactive); for `O=c1[nH]nc(SCCS(=O)(=O)c2ccc(F)cc2)n1-c1ccccc1`: 22.9 µM.
In the case of `O=C(NCCc1csc(-c2cccnc2)n1)c1ccc(Br)o1` it was 17.8 µM; in that of `CN(Cc1nc2c(s1)CCCC2)C(=O)CCc1nnc(-c2ccccc2)o1`, > 30 µM (inactive).
With `COc1ccc(OC)c(C(=O)c2c(C)oc3cc(Br)c(O)c(CN(C)C)c23)c1`, the AC50 was > 30 µM (inactive).
Regarding `Cc1ccc(S(=O)(=O)Nc2cccc3cccnc23)cc1`, the AC50 is > 30 µM (inactive).
In the case of `CCc1cc(C(=O)c2ccc(C)cc2)c(NC(=O)CCl)s1` it was > 30 µM (inactive); in that of `Cc1sc2ncnc(N3CCC(C(=O)Nc4ccc(S(N)(=O)=O)cc4)CC3)c2c1C`, 28.2 µM.
Regarding `COc1ccc(-c2nsc3c(N4CCCCC4C)ncnc23)cc1` (configuration not stated), the AC50 was > 30 µM (inactive).
The same measure for `CCN(C(=O)CN1CCCCC1)c1c(N)n(Cc2ccccc2)c(=O)[nH]c1=O`: > 30 µM (inactive).
As for `COC(=O)c1sc2cnccc2c1N`, the AC50 was 24.8 µM.
Consider `C=CCN=C1NN=C(c2ccc3c(c2)OCCO3)CS1`, for which the AC50 is > 30 µM (inactive).
Turning to `CCCNC(=O)OCCC12CC3CC(CC(C3)C1)C2`, the AC50 was > 30 µM (inactive).
The same measure for `N#Cc1sc2nc3c(c(-c4ccco4)c2c1N)CCCC3`: 2.42 µM; for `C=CCNC(=S)N/N=C(\C)c1ccc(OC)cc1`: > 30 µM (inactive).
Regarding `COc1ccc(CC(=O)N2CCOCC2)cc1`, the AC50 was > 30 µM (inactive).
In the case of `O=C(NC(=S)NCC1COc2ccccc2O1)c1ccccc1` (configuration not stated) it was > 30 µM (inactive); in that of `N#CC1=C2SCN(c3ccccc3)CN2C(=O)CC1c1c(Cl)cccc1Cl` (configuration not stated), > 30 µM (inactive).
In the case of `COc1ccc(-c2ncncc2-c2ccc(OC)c(OC)c2)c(O)c1`, the half-maximal activity concentration (AC50) was 10.3 µM.
The same measure for `CCC(C)Sc1nc2c(c(=O)[nH]1)C(c1cccs1)C1=C(CCCC1=O)N2` (configuration not stated): > 30 µM (inactive); for `O=C(O)CCSc1nnc(-c2ccncc2)n1-c1ccccc1`: > 30 µM (inactive); for `COc1ccc(SCCN2CC[C@@H](C(C)(C)C)CCC2=O)cc1`: 23.6 µM.
The same measure for `CCC(C)c1ccc(NC(=S)NCc2cccs2)cc1` (configuration not stated): > 30 µM (inactive); for `COCCCNc1nc2nonc2nc1NCCSC`: > 30 µM (inactive).
Take `COc1ccc(-c2cc(C(F)(F)F)nc(SCCC(=O)NCc3ccco3)n2)cc1`: the AC50 is > 30 µM (inactive).
In the case of `COc1ccc(NC(=O)c2nnn(Cc3ccc(SC)cc3)c2N)c(OC)c1` it was > 30 µM (inactive).
Turning to `COc1cc(/C=N/NC(=O)c2nnn(-c3nonc3N)c2-c2cccs2)ccc1O`, the concentration at half-maximal activity (AC50) was 4.37 µM.
Regarding `CCC(=NCCCn1ccnc1)c1c(O)n(-c2ccccc2)c(=O)[nH]c1=O`, the AC50 is 27.8 µM.
Turning to `Cc1cccc(C(=O)O/N=C(\N)c2cccc([N+](=O)[O-])c2)c1`, the AC50 is > 30 µM (inactive).
With `CN1/C(=C\C=C\C2=[N+](C)c3ccc4ccccc4c3C2(C)C)C(C)(C)c2ccccc21`, the half-maximal activity concentration (AC50) is 10.3 µM.
With `COc1cccc(/C=N/NC(=O)C(=O)N2CCCC2)c1OC`, the AC50 was > 30 µM (inactive).
Regarding `Cc1ccc(-n2nnnc2CSc2nnc(-c3ccc(O)cc3)o2)cc1`, the concentration at half-maximal activity (AC50) is 5.51 µM.
In the case of `Cc1nc(C)c(C(=O)Nc2ncc([N+](=O)[O-])s2)o1` it was > 30 µM (inactive); in that of `Nc1nonc1-n1nnc(C(=O)N/N=C/c2cccs2)c1CSc1ccccc1`, > 30 µM (inactive).
In the case of `CCOC(=O)C1=C(CC)OC(N)=C(C#N)C1c1ccc(NC(C)=O)cc1` (configuration not stated) it was > 30 µM (inactive); in that of `CCOc1cccc(-c2c(C(=O)N/N=C/c3ccoc3)nnn2-c2nonc2N)c1`, 6.81 µM.
The same measure for `CC(C)c1ccc(NC(=O)CSc2n[nH]c(=O)n2-c2ccc3c(c2)OCCO3)cc1`: > 30 µM (inactive).
With `S=C(Nc1cccc(Cl)c1)Nc1cccc2cnccc12`, the AC50 was > 30 µM (inactive).
In the case of `NS(=O)(=O)c1ccc(Nc2nc(-c3cccnc3)cs2)cc1` it was > 30 µM (inactive).
As for `COc1cccc(Nc2ncnc3nc[nH]c23)c1`, the concentration at half-maximal activity (AC50) is 19.7 µM.
The same measure for `O=C(N/N=C/c1ccc(O)c(O)c1)C1CC1`: > 30 µM (inactive); for `Cc1ccc2nc3c(cc2c1)c(NS(=O)(=O)c1ccccc1)nn3CC(C)C`: > 30 µM (inactive).
`COc1ccc(/C=C/c2nc(N)nc(-c3ccccc3O)n2)cc1OC`: the AC50 was > 30 µM (inactive).
For the compound `O=C(COc1ccccc1Br)NC1CC1`, the AC50 is > 30 µM (inactive).

A word on the AC50: it is the concentration giving half of the maximal activity seen.
